≈ marks a conversion by molar mass, not a printed value.
What was measured:
Type in all cases: functional
Staphylococcus aureus [1] = assay: Antibacterial activity against methicillin-resistant Staphylococcus aureus isolate shhs-A1 by CLSI method
Enterococcus faecalis = assay: Antibacterial activity against Enterococcus faecalis ATCC 29212 by CLSI method
Staphylococcus aureus [2] = assay: Antibacterial activity against Staphylococcus aureus ATCC 29213 by CLSI method
Bacillus thuringiensis = assay: Antibacterial activity against Bacillus thuringiensis BT01 by CLSI method
Bacillus subtilis = assay: Antibacterial activity against Bacillus subtilis BS01 by CLSI method

Compound	MIC (Staphylococcus aureus [1]) [µg/mL]	MIC (Enterococcus faecalis) [µg/mL]	MIC (Staphylococcus aureus [2]) [µg/mL]	MIC (Bacillus thuringiensis) [µg/mL]	MIC (Bacillus subtilis) [µg/mL]
C/C1=C\[C@@H]2C=C[C@H](C)C[C@]23OC(=O)C(=C3O)C(=O)[C@@]2(C)[C@H]3[C@H](C=C[C@H]2/C(C)=C/C[C@@H]1O)[C@@H](O)[C@@H](C)C[C@@H]3C	128 (≈ 245 µM)	128 (≈ 245 µM)	128 (≈ 245 µM)	64 (≈ 122 µM)	64 (≈ 122 µM)
COC(=O)N[C@H]1[C@@H](C)O[C@@H](O[C@H]2C/C=C(\C)[C@@H]3C=C[C@@H]4[C@@H](O[C@H]5C[C@@H](O[C@H]6C[C@@H](O)[C@@H](O[C@@H]7C[C@@H](O)[C@@H](O)[C@H](C)O7)[C@H](C)O6)[C@@H](OC(C)=O)[C@H](C)O5)[C@@H](C)C[C@H](C)[C@H]4[C@]3(C)C(=O)C3=C(O)[C@@]4(CC(/C=C/C(C)=O)=C[C@H](O)[C@H]4/C=C/2C)OC3=O)C[C@]1(C)N	> 128	> 128	> 128	4 (≈ 3.26 µM)	8 (≈ 6.53 µM)
COC(=O)N[C@H]1[C@@H](C)O[C@@H](O[C@H]2C/C=C(\C)[C@@H]3C=C[C@@H]4[C@@H](O[C@H]5C[C@@H](O[C@H]6CC[C@@H](O[C@@H]7C[C@@H](O)[C@@H](O)[C@H](C)O7)[C@H](C)O6)[C@@H](OC(C)=O)[C@H](C)O5)[C@@H](C)C[C@H](C)[C@H]4[C@]3(C)C(=O)C3=C(O)[C@@]4(CC(/C=C/C(C)=O)=C[C@H](O)[C@H]4/C=C/2C)OC3=O)C[C@]1(C)[N+](=O)[O-]	32 (≈ 25.8 µM)	64 (≈ 51.6 µM)	32 (≈ 25.8 µM)	0.063 (≈ 0.0508 µM)	0.13 (≈ 0.105 µM)
COC(=O)N[C@H]1[C@@H](C)O[C@@H](O[C@H]2C/C=C(\C)[C@@H]3C=C[C@@H]4[C@@H](O[C@H]5C[C@@H](O[C@H]6CC[C@@H](O[C@@H]7C[C@@H](O)[C@@H](O)[C@H](C)O7)[C@H](C)O6)[C@@H](OC(C)=O)[C@H](C)O5)[C@@H](C)C[C@H](C)[C@H]4[C@]3(C)C(=O)C3=C(O)[C@@]4(CC(/C=C/C(C)=O)=C[C@H](O)[C@H]4/C=C/2C)OC3=O)C[C@]1(C)N	> 128	> 128	128 (≈ 106 µM)	1 (≈ 0.827 µM)	2 (≈ 1.65 µM)
COC(=O)N[C@H]1[C@@H](C)O[C@@H](O[C@H]2C/C=C(\C)[C@@H]3C=C[C@@H]4[C@@H](O[C@H]5C[C@@H](O[C@H]6CC[C@@H](O[C@@H]7C[C@@H](O)[C@@H](O[C@H]8CC[C@@H](O)[C@H](C)O8)[C@H](C)O7)[C@H](C)O6)[C@@H](OC(C)=O)[C@H](C)O5)[C@@H](C)C[C@H](C)[C@H]4[C@]3(C)C(=O)C3=C(O)[C@@]4(CC(C=O)=C[C@H](O)[C@H]4/C=C/2C)OC3=O)C[C@]1(C)N	> 128	> 128	> 128	1 (≈ 0.779 µM)	2 (≈ 1.56 µM)
COC(=O)N[C@H]1[C@@H](C)O[C@@H](O[C@H]2C/C=C(\C)[C@@H]3C=C[C@@H]4[C@@H](O[C@H]5C[C@@H](O[C@H]6C[C@@H](O)[C@@H](O[C@@H]7C[C@@H](O)[C@@H](O)[C@H](C)O7)[C@H](C)O6)[C@@H](OC(C)=O)[C@H](C)O5)[C@@H](C)C[C@H](C)[C@H]4[C@]3(C)C(=O)C3=C(O)[C@@]4(CC(/C=C/C(C)=O)=C[C@H](O)[C@H]4/C=C/2C)OC3=O)C[C@]1(C)[N+](=O)[O-]	> 128	128 (≈ 102 µM)	> 128	0.25 (≈ 0.199 µM)	0.5 (≈ 0.398 µM)
NC[C@H]1O[C@H](O[C@H]2[C@H](O)[C@@H](O[C@H]3O[C@H](CO)[C@@H](O)[C@H](N)[C@H]3O)[C@H](N)C[C@@H]2N)[C@H](O)[C@@H](O)[C@@H]1O [KANAMYCIN]	64 (≈ 132 µM)	32 (≈ 66 µM)	16 (≈ 33 µM)	8 (≈ 16.5 µM)	8 (≈ 16.5 µM)
CN[C@H](CC(C)C)C(=O)N[C@H]1C(=O)N[C@@H](CC(N)=O)C(=O)N[C@H]2C(=O)N[C@H]3C(=O)N[C@H](C(=O)N[C@H](C(=O)O)c4cc(O)cc(O)c4-c4cc3ccc4O)[C@H](O)c3ccc(c(Cl)c3)Oc3cc2cc(c3O[C@@H]2O[C@H](CO)[C@@H](O)[C@H](O)[C@H]2O[C@H]2C[C@](C)(N)[C@H](O)[C@H](C)O2)Oc2ccc(cc2Cl)[C@H]1O [VANCOMYCIN]	–	–	–	2 (≈ 1.38 µM)	1 (≈ 0.69 µM)
COC(=O)N[C@H]1[C@@H](C)O[C@@H](O[C@H]2C/C=C(\C)[C@@H]3C=C[C@@H]4[C@@H](O[C@H]5C[C@@H](O[C@H]6CC[C@@H](O[C@@H]7C[C@@H](O)[C@@H](O)[C@H](C)O7)[C@H](C)O6)[C@@H](OC(C)=O)[C@H](C)O5)[C@@H](C)C[C@H](C)[C@H]4[C@]3(C)C(=O)C3=C(O)[C@@]4(CC(C=O)=C[C@H](O)[C@H]4/C=C/2C)OC3=O)C[C@]1(C)N	> 128	> 128	> 128	1 (≈ 0.855 µM)	2 (≈ 1.71 µM)
COC(=O)N[C@H]1[C@@H](C)O[C@@H](O[C@H]2C/C=C(\C)[C@@H]3C=C[C@@H]4[C@@H](O[C@H]5C[C@@H](O[C@H]6CC[C@@H](O[C@@H]7C[C@@H](O)[C@@H](O)[C@H](C)O7)[C@H](C)O6)[C@@H](OC(C)=O)[C@H](C)O5)[C@@H](C)C[C@H](C)[C@H]4[C@]3(C)C(=O)C3=C(O)[C@@]4(CC(C=O)=C[C@H](O)[C@H]4/C=C/2C)OC3=O)C[C@]1(C)[N+](=O)[O-]	32 (≈ 26.7 µM)	64 (≈ 53.4 µM)	32 (≈ 26.7 µM)	0.063 (≈ 0.0525 µM)	0.063 (≈ 0.0525 µM)
COC(=O)N[C@H]1[C@@H](C)O[C@@H](O[C@H]2C/C=C(\C)[C@@H]3C=C[C@@H]4[C@@H](O[C@H]5C[C@@H](O[C@H]6CC[C@@H](O[C@@H]7C[C@@H](O)[C@@H](O[C@H]8CC[C@@H](O)[C@H](C)O8)[C@H](C)O7)[C@H](C)O6)[C@@H](OC(C)=O)[C@H](C)O5)[C@@H](C)C[C@H](C)[C@H]4[C@]3(C)C(=O)C3=C(O)[C@@]4(CC(C=O)=C[C@H](O)[C@H]4/C=C/2C)OC3=O)C[C@]1(C)[N+](=O)[O-]	32 (≈ 24.4 µM)	64 (≈ 48.7 µM)	32 (≈ 24.4 µM)	0.016 (≈ 0.0122 µM)	0.03 (≈ 0.0228 µM)
CC1(C)S[C@@H]2[C@H](NC(=O)[C@H](N)c3ccccc3)C(=O)N2[C@H]1C(=O)O [AMPICILLIN]	1 (≈ 2.86 µM)	2 (≈ 5.72 µM)	2 (≈ 5.72 µM)	32 (≈ 91.6 µM)	0.25 (≈ 0.715 µM)
C/C1=C\[C@@H]2C=C[C@H](C)C[C@]23OC(=O)C(=C3O)C(=O)[C@@]2(C)[C@H]3[C@H](C=C[C@H]2/C(C)=C/C[C@@H]1O)[C@@H](O)[C@](C)(O)C[C@@H]3C	> 128	> 128	> 128	> 128	> 128
COC(=O)N[C@H]1[C@@H](C)O[C@@H](O[C@H]2C/C=C(\C)[C@@H]3C=C[C@@H]4[C@@H](O[C@H]5C[C@@H](O[C@H]6CC[C@@H](O[C@@H]7C[C@@H](O)[C@@H](O[C@H]8CC[C@@H](O)[C@H](C)O8)[C@H](C)O7)[C@H](C)O6)[C@@H](OC(C)=O)[C@H](C)O5)[C@@H](C)C[C@H](C)[C@H]4[C@]3(C)C(=O)C3=C(O)[C@@]4(CC(/C=C/C(C)=O)=C[C@H](O)[C@H]4/C=C/2C)OC3=O)C[C@]1(C)N	> 128	> 128	> 128	1 (≈ 0.756 µM)	2 (≈ 1.51 µM)
COC(=O)N[C@H]1[C@@H](C)O[C@@H](O[C@H]2C/C=C(\C)[C@@H]3C=C[C@@H]4[C@@H](O[C@H]5C[C@@H](O[C@H]6CC[C@@H](O[C@@H]7C[C@@H](O)[C@@H](O[C@H]8CC[C@@H](O)[C@H](C)O8)[C@H](C)O7)[C@H](C)O6)[C@@H](OC(C)=O)[C@H](C)O5)[C@@H](C)C[C@H](C)[C@H]4[C@]3(C)C(=O)C3=C(O)[C@@]4(CC(/C=C/C(C)=O)=C[C@H](O)[C@H]4/C=C/2C)OC3=O)C[C@]1(C)[N+](=O)[O-]	32 (≈ 23.6 µM)	64 (≈ 47.3 µM)	32 (≈ 23.6 µM)	0.016 (≈ 0.0118 µM)	0.03 (≈ 0.0222 µM)

Source: ChEMBL document CHEMBL4118053, “Antimicrobial Spirotetronate Metabolites from Marine-Derived Micromonospora harpali SCSIO GJ089” (2017)
